Experimental data: patent publication US10364256B2 (GlaxoSmithKline Intellectual Property Development Limited, priority 2015, dated 2019)

How the values were obtained:
[1] = molecular target: T1, Keap1 Kelch domain (321-609) / TAMRA-labeled 16mer NRF2 peptide (ETGE motif) (Homo sapiens, UniProt Q14145); assay: NRF2-Keap1 FP Assay (Keap1 Kelch fluorescence polarization); type: binding; details: 20 nM Keap1 (321-609), 8 nM Tamra labeled peptide
T1 construct: the Kelch domain (321-609) of Keap1 is used
How it was run: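 Compound dilutions (3-fold) were incubated 1 hr at room temperature with 20 nM Keap1 Kelch (321-609) and 8 nM TAMRA-labeled ETGE 16mer peptide. Buffer was 50 mM Tris pH 8.0, 100 mM NaCl, 5 mM MgCl2, 1 mM DTT, 2 mM CHAPS, 0.005% BSA. Fluorescence polarization (mP) was normalized to controls and fitted with a four-parameter equation to give pIC50.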

[2] = molecular target: T2, full length Keap1 protein / full length NRF2 protein (Homo sapiens, UniProt Q14145); assay: NRF2-Keap1 TR-FRET Assay; type: binding; details: 25 nM Keap1-FlagHis and 50 nM biotin-NRF2 added
T2 construct: full length NRF2 protein and full length Keap1 protein (Keap1 exists a dimer) are used; His
How it was run: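 Full-length Keap1-FlagHis preincubated with compound 2.25 h at 37 °C, then biotin-NRF2 added for 1.25 h at 4 °C, in Tris pH 8.0 with MgCl2, NaCl, BSA, DTT, CHAPS. TR-FRET 665/615 nm ratio normalised to with- and without-protein 1% DMSO controls; pIC50 from four-parameter fit.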

T2 sequence (Q14145 whole entry): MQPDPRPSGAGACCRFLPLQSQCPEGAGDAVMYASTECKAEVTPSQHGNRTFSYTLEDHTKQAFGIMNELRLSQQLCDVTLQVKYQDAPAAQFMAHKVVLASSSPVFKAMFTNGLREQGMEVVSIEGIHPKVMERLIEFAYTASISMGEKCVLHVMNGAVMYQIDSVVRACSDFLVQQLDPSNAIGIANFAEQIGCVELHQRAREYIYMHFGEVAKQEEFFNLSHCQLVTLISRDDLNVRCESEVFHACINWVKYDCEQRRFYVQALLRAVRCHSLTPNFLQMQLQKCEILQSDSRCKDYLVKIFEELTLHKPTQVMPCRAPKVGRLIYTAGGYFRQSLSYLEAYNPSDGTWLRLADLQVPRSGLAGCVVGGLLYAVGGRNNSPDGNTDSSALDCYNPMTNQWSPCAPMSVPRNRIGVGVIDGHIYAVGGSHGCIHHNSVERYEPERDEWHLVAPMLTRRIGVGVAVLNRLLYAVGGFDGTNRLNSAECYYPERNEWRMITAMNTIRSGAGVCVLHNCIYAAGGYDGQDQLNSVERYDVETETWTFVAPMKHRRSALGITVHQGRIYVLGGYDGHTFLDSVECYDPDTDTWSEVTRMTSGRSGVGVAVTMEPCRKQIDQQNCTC
T1 sequence (Q14145 321-609): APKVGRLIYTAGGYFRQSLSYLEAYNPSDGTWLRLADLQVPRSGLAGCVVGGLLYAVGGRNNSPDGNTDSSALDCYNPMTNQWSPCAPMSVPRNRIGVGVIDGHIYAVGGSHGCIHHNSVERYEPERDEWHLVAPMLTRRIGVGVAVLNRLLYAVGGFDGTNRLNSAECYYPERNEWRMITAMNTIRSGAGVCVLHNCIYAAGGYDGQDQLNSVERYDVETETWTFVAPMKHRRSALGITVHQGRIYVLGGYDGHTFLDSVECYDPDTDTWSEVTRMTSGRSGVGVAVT

| Compound | IC50 [1] | IC50 [2] |
| --- | --- | --- |
| CC1(C)CCc2cnn(-c3cccc(-c4cccc(-n5ncc(C(=O)O)c5C5CC5)c4)c3)c21 [Example 63, 5-Cyclopropyl-1-(3′-(6,6-dimethyl-5,6-dihydrocyclopenta[c]pyrazol-1(4H)-yl)-[1,1′-biphenyl]-3-yl)-1H-pyrazole-4-carboxylic Acid] | 100 to 1000 nM | 100 to 1000 nM |
| CC(C)CC1CCCCN1C(=O)c1cccc(-c2cccc(-n3ncc(C(=O)O)c3C3CC3)c2)c1F (stereo not shown) [Example 28, 5-Cyclopropyl-1-(3-{2-fluoro-3-[2-(2-methylpropyl)piperidine-1-carbonyl]phenyl}phenyl)-1H-pyrazole-4-carboxylic Acid] | 10 to 100 nM | 100 to 1000 nM |
| Cn1cc([C@H]2C[C@@H]2c2c(C(=O)O)cnn2-c2cccc(-c3cccc(C(=O)N4CCCC(C)(C)C4)c3F)c2)nn1 (racemic) [Example 259, 1-(2′-Fluoro-3′-(3,3-dimethylpiperidine-1-carbonyl)-[1,1′-biphenyl]-3-yl)-5-(trans-2-(1-methyl-1H-1,2,3-triazol-4-yl)cyclopropyl)-1H-pyrazole-4-carboxylic Acid] | 10 to 100 nM | 10 to 100 nM |
| C[C@@H]1CCC[C@H](C)N1C(=O)c1cccc(-c2cccc(-n3ncc(C(=O)O)c3[C@@H]3C[C@H]3c3cn(C)nn3)c2)c1F (single isomer, unassigned) [Example 262] | 10 to 100 nM | 10 to 100 nM |
| Cn1cc([C@@H]2C[C@H]2c2c(C(=O)O)cnn2-c2cccc(-c3cccc(CN4Cc5ccccc5OC(C)(C)C4)c3)c2)nn1 (racemic) [Example 254, 1-(3′-((2,2-Dimethyl-2,3-dihydrobenzo[f][1,4]oxazepin-4(5H)-yl)methyl)-[1,1′-biphenyl]-3-yl)-5-(trans-2-(1-methyl-1H-1,2,3-triazol-4-yl)cyclopropyl)-1H-pyrazole-4-carboxylic Acid] | 10 to 100 nM | 100 to 1000 nM |
| CC(Oc1cccc(-c2cccc(-n3ncc(C(=O)O)c3[C@@H]3C[C@H]3c3cn(C)nn3)n2)c1)C1CCCCC1 (relative stereo) [Example 249, 1-(6-(3-(1-Cyclohexylethoxy)phenyl)pyridin-2-yl)-5-(trans-2-(1-methyl-1H-1,2,3-triazol-4-yl)cyclopropyl)-1H-pyrazole-4-carboxylic Acid] | 10 to 100 nM | 10 to 100 nM |
| CCCC1CCCCN1C(=O)c1cccc(-c2cccc(-n3ncc(C(=O)O)c3C3CC3)c2)c1F (stereo in doubt) [Example 54d, 5-Cyclopropyl-1-{3-[2-fluoro-3-((2R)-2-propylpiperidine-1-carbonyl)phenyl]phenyl}-1H-pyrazole-4-carboxylic Acid] | 10 to 100 nM | 1000 to 10000 nM |
| O=C(O)c1cnn(-c2cccc(-c3cccc(C(=O)N4CCCCC4CCC(F)(F)F)c3F)c2)c1C1CC1 (stereo not shown) [Example 38, 5-Cyclopropyl-1-(3-{2-fluoro-3-[2-(3,3,3-trifluoropropyl)piperidine-1-carbonyl]phenyl}phenyl)-1H-pyrazole-4-carboxylic Acid] | 10 to 100 nM | 100 to 1000 nM |
| CCC[C@@H]1CO[C@@H](C)CN1C(=O)c1cccc(-c2cccc(-n3ncc(C(=O)O)c3C3CC3)c2)c1F [Example 45, 5-cyclopropyl-1-(3-{2-fluoro-3-[(2S,5R)-2-methyl-5-propylmorpholine-4-carbonyl]phenyl}phenyl)-1H-pyrazole-4-carboxylic Acid] | 10 to 100 nM | 100 to 1000 nM |

More lines, now with the values ahead:

| IC50 [1] | IC50 [2] | Compound |
| --- | --- | --- |
| 10 to 100 nM | 100 to 1000 nM | C[C@@H]1CN(Cc2cccc(-c3cccc(-n4ncc(C(=O)O)c4[C@@H]4C[C@H]4c4cn(C)nn4)c3)c2)Cc2ccccc2O1 [Example 253] |
| 10 to 100 nM | 10 to 100 nM | Cn1cc([C@H]2C[C@@H]2c2c(C(=O)O)cnn2-c2cccc(-c3cccc(C(=O)N4CCCCCC4)c3F)c2)nn1 (racemic) [Example 260, 1-(2′-Fluoro-3′-(azepane-1-carbonyl)-[1,1′-biphenyl]-3-yl)-5-(trans-2-(1-methyl-1H-1,2,3-triazol-4-yl)cyclopropyl)-1H-pyrazole-4-carboxylic Acid] |
| 10 to 100 nM | 10 to 100 nM | Cn1cc([C@H]2C[C@@H]2c2c(C(=O)O)cnn2-c2cccc(-c3cccc(C(=O)N4CCCCC4)c3F)c2)nn1 (racemic) [Example 258, 1-(2′-Fluoro-3′-(piperidine-1-carbonyl)-[1,1′-biphenyl]-3-yl)-5-(trans-2-(1-methyl-1H-1,2,3-triazol-4-yl)cyclopropyl)-1H-pyrazole-4-carboxylic Acid] |
| 10 to 100 nM | 10 to 100 nM | Cn1cc([C@@H]2C[C@H]2c2c(C(=O)O)cnn2-c2cccc(-c3cccc(-n4ncc5c4C(C)(C)CC5)c3)n2)nn1 (racemic) [Example 251, 1-(6-(3-(6,6-Dimethyl-5,6-dihydrocyclopenta[c]pyrazol-1(4H)-yl)phenyl)pyridin-2-yl)-5-(trans-2-(1-methyl-1H-1,2,3-triazol-4-yl)cyclopropyl)-1H-pyrazole-4-carboxylic Acid] |
| 10 to 100 nM | 10 to 100 nM | CCOC[C@@H]1CCCN1C(=O)c1cccc(-c2cccc(-n3ncc(C(=O)O)c3[C@@H]3C[C@H]3c3cn(C)nn3)c2)c1F [Example 267] |
| 10 to 100 nM | 10 to 100 nM | CC1CC(C)CN(C(=O)c2cccc(-c3cccc(-n4ncc(C(=O)O)c4[C@@H]4C[C@H]4c4cn(C)nn4)c3)c2F)C1 (mixture of isomers) [Example 263, 1-(3′-(3,5-Dimethylpiperidine-1-carbonyl)-2′-fluoro-[1,1′-biphenyl]-3-yl)-5-(2-(1-methyl-1H-1,2,3-triazol-4-yl)cyclopropyl)-1H-pyrazole-4-carboxylic Acid] |
| 10 to 100 nM | 100 to 1000 nM | O=C(O)c1cnn(-c2cccc(-c3cccc(C(=O)N(CC4CC4)CC4CC4)c3F)c2)c1C1CC1 [Example 8, 1-(3-{3-[Bis(cyclopropylmethyl)carbamoyl]-2-fluorophenyl}phenyl)-5-cyclopropyl-1H-pyrazole-4-carboxylic Acid] |
| 10 to 100 nM | 100 to 1000 nM | CC1CCCN(C(=O)c2cccc(-c3cccc(-n4ncc(C(=O)O)c4C4CC4)c3)c2F)CC1 (stereo not shown) [Example 29, 5-Cyclopropyl-1-{3-[2-fluoro-3-(4-methylazepane-1-carbonyl)phenyl]phenyl}-1H-pyrazole-4-carboxylic Acid] |
| 10 to 100 nM | 100 to 1000 nM | CCC1Cc2ccccc2CN(Cc2cccc(-c3cccc(-n4ncc(C(=O)O)c4[C@@H]4C[C@H]4c4cn(C)nn4)c3)c2)C1 (relative stereo) [Example 252, 1-(3′-((4-Ethyl-4,5-dihydro-1H-benzo[c]azepin-2(3H)-yl)methyl)-[1,1′-biphenyl]-3-yl)-5-(trans-2-(1-methyl-1H-1,2,3-triazol-4-yl)cyclopropyl)-1H-pyrazole-4-carboxylic Acid] |
| 10 to 100 nM | 10 to 100 nM | CC(C)CN(C)C(=O)c1cccc(-c2cccc(-n3ncc(C(=O)O)c3[C@@H]3C[C@H]3c3cn(C)nn3)c2)c1F (racemic) [Example 266, 1-(2′-Fluoro-3′(isobutyl(methyl)carbamoyl)-[1,1′-biphenyl]-3-yl)-5-(trans-2-(1-methyl-1H-1,2,3-triazol-4-yl)cyclopropyl)-1H-pyrazole-4-carboxylic Acid] |
| 10 to 100 nM | 10 to 100 nM | CCOC[C@H]1CCCN1C(=O)c1cccc(-c2cccc(-n3ncc(C(=O)O)c3[C@@H]3C[C@H]3c3cn(C)nn3)c2)c1F [Example 268] |
